Results: ChEMBL document CHEMBL3272271, “Folate antagonists. 13. 2,4-Diamino-6-](alpha,alpha,alpha-trifluoro-m-tolyl)thio]quinazoline and related 2,4-diamino-6-[(phenyl- and naphthyl)thio]quinazolines, a unique class of antimetabolites with extraordinary antimalarial and antibacterial effects” (J Med Chem, 1978)
Values after ≈ are worked out from the molar mass of the structure shown. Active and inactive are the calls of the source. The rule behind the calls is not given here.

How the values were obtained:
Plasmodium berghei [1] = test: Antimalarial activity against chloroquine-resistant Plasmodium berghei assessed as drug resistance; type: functional, organism-based
Plasmodium berghei [2] = test: Antimalarial activity against Plasmodium berghei infected in mouse assessed as disease cure from parasite infection at 10 mg/kg, sc administered 72 hrs after infection; type: functional, organism-based; set-up: dose 10 mg/kg
Plasmodium berghei [3] = test: Antimalarial activity against Plasmodium berghei infected in mouse assessed as increase in mean survival days of host at 2.5 mg/kg, sc administered 72 hrs after infection relative to control; type: functional; conditions: route subcutaneous
Plasmodium berghei [4] = test: Antimalarial activity against Plasmodium berghei infected in mouse assessed as increase in mean survival days of host at 10 mg/kg, sc administered 72 hrs after infection relative to control; type: functional; conditions: route subcutaneous
Plasmodium berghei [5] = test: Antimalarial activity against Plasmodium berghei infected in mouse assessed as increase in mean survival days of host at 20 mg/kg, sc administered 72 hrs after infection relative to control; type: functional; conditions: route subcutaneous
Plasmodium berghei [6] = test: Antimalarial activity against Plasmodium berghei infected in mouse assessed as disease cure from parasite infection at 320 mg/kg, sc administered 72 hrs after infection; type: functional, organism-based; set-up: dose 320 mg/kg
Plasmodium berghei [7] = test: Antimalarial activity against Plasmodium berghei infected in mouse assessed as disease cure from parasite infection at 80 mg/kg, sc administered 72 hrs after infection; type: functional, organism-based; set-up: dose 80 mg/kg
Plasmodium berghei [8] = test: Antimalarial activity against cycloguanil-resistant Plasmodium berghei assessed as drug resistance; type: functional, organism-based
Plasmodium berghei [9] = test: Antimalarial activity against Plasmodium berghei infected in mouse assessed as disease cure from parasite infection at 40 mg/kg, sc administered 72 hrs after infection; type: functional, organism-based; set-up: dose 40 mg/kg
Plasmodium berghei [10] = test: Antimalarial activity against Plasmodium berghei infected in mouse assessed as disease cure from parasite infection at 160 mg/kg, sc administered 72 hrs after infection; type: functional, organism-based; set-up: dose 160 mg/kg
Plasmodium gallinaceum [11] = test: Antimalarial activity against trophozoite-induced Plasmodium gallinaceum infected in white leghorn chicken assessed as increase in mean survival days of host at 100 mg/kg, sc administered 72 hrs after infection relative to control; type: functional; conditions: route subcutaneous
Plasmodium berghei [12] = test: Antimalarial activity against Plasmodium berghei infected in mouse assessed as increase in mean survival days of host at 5 mg/kg, sc administered 72 hrs after infection relative to control; type: functional; conditions: route subcutaneous
Plasmodium berghei [13] = test: Antimalarial activity against Plasmodium berghei infected in mouse assessed as disease cure from parasite infection at 20 mg/kg, sc administered 72 hrs after infection; type: functional, organism-based; set-up: dose 20 mg/kg
Plasmodium gallinaceum [14] = test: Antimalarial activity against trophozoite-induced Plasmodium gallinaceum infected in white leghorn chicken assessed as disease cure from parasite infection at 100 mg/kg, sc administered 72 hrs after infection; type: functional, organism-based; set-up: dose 100 mg/kg
Plasmodium berghei [15] = test: Antimalarial activity against Plasmodium berghei infected in mouse assessed as disease cure from parasite infection at 640 mg/kg, sc administered 72 hrs after infection; type: functional, organism-based; set-up: dose 640 mg/kg
Plasmodium berghei [16] = test: Antimalarial activity against Plasmodium berghei infected in mouse assessed as increase in mean survival days of host at 1.25 mg/kg, sc administered 72 hrs after infection relative to control; type: functional; conditions: route subcutaneous
Gallus gallus [17] = test: Toxicity in sporozoite-induced Plasmodium gallinaceum infected white leghorn chicken assessed as mortality at 60 mg/kg, sc administered 72 hrs after infection measured up to 6 days; type: organism-based; set-up: dose 60 mg/kg, route subcutaneous; conditions: in vivo
Shigella sonnei = test: Antibacterial activity against Shigella sonnei C-10 by gradient plate test; type: functional
Enterococcus faecalis = test: Antibacterial activity against Streptococcus faecalis MGH-2 by gradient plate test; type: functional
Plasmodium gallinaceum [18] = test: Antimalarial activity against sporozoite-induced Plasmodium gallinaceum infected in white leghorn chicken assessed as disease cure from parasite infection at 15 mg/kg, sc administered 72 hrs after infection; type: functional, organism-based; set-up: dose 15 mg/kg
Plasmodium gallinaceum [19] = test: Antimalarial activity against sporozoite-induced Plasmodium gallinaceum infected in white leghorn chicken assessed as disease cure from parasite infection at 480 mg/kg, sc administered 72 hrs after infection; type: functional, organism-based; set-up: dose 480 mg/kg
Escherichia coli = test: Antibacterial activity against Escherichia coli Vogel by gradient plate test; type: functional
[20] = tested on: Mycobacterium tuberculosis; test: Antibacterial activity against Mycobacterium tuberculosis H37Ra by gradient plate test; type: functional
Plasmodium gallinaceum [21] = test: Antimalarial activity against sporozoite-induced Plasmodium gallinaceum infected in white leghorn chicken assessed as disease cure from parasite infection at 60 mg/kg, sc administered 72 hrs after infection; type: functional, organism-based; set-up: dose 60 mg/kg
Pseudomonas aeruginosa = test: Antibacterial activity against Pseudomonas aeruginosa 28 by gradient plate test; type: functional
Plasmodium gallinaceum [22] = test: Antimalarial activity against sporozoite-induced Plasmodium gallinaceum infected in white leghorn chicken assessed as disease cure from parasite infection at 240 mg/kg, sc administered 72 hrs after infection; type: functional, organism-based; set-up: dose 240 mg/kg
Plasmodium gallinaceum [23] = test: Antimalarial activity against sporozoite-induced Plasmodium gallinaceum infected in white leghorn chicken assessed as disease cure from parasite infection at 30 mg/kg, sc administered 72 hrs after infection; type: functional, organism-based; set-up: dose 30 mg/kg
Staphylococcus aureus [24] = test: Antibacterial activity against Staphylococcus aureus UC-96 by gradient plate test; type: functional
Plasmodium berghei [25] = test: Antimalarial activity against Plasmodium berghei infected in mouse assessed as increase in mean survival days of host at 80 mg/kg, sc administered 72 hrs after infection relative to control; type: functional; conditions: route subcutaneous
Plasmodium berghei [26] = test: Antimalarial activity against Plasmodium berghei infected in mouse assessed as increase in mean survival days of host at 40 mg/kg, sc administered 72 hrs after infection relative to control; type: functional; conditions: route subcutaneous
Gallus gallus [27] = test: Toxicity in sporozoite-induced Plasmodium gallinaceum infected white leghorn chicken assessed as mortality at 240 mg/kg, sc administered 72 hrs after infection measured up to 6 days; type: organism-based; set-up: dose 240 mg/kg, route subcutaneous; conditions: in vivo
Gallus gallus [28] = test: Toxicity in sporozoite-induced Plasmodium gallinaceum infected white leghorn chicken assessed as mortality at 15 mg/kg, sc administered 72 hrs after infection measured up to 6 days; type: organism-based; set-up: dose 15 mg/kg, route subcutaneous; conditions: in vivo
Gallus gallus [29] = test: Toxicity in sporozoite-induced Plasmodium gallinaceum infected white leghorn chicken assessed as mortality at 30 mg/kg, sc administered 72 hrs after infection measured up to 6 days; type: organism-based; set-up: dose 30 mg/kg, route subcutaneous; conditions: in vivo
Staphylococcus aureus [30] = test: Antibacterial activity against drug-resistant Staphylococcus aureus S18713 by gradient plate test; type: functional
Plasmodium gallinaceum [31] = test: Antimalarial activity against sporozoite-induced Plasmodium gallinaceum infected in white leghorn chicken assessed as disease cure from parasite infection at 120 mg/kg, sc administered 72 hrs after infection; type: functional, organism-based; set-up: dose 120 mg/kg
Gallus gallus [32] = test: Toxicity in sporozoite-induced Plasmodium gallinaceum infected white leghorn chicken assessed as mortality at 120 mg/kg, sc administered 72 hrs after infection measured up to 6 days; type: organism-based; set-up: dose 120 mg/kg, route subcutaneous; conditions: in vivo
Gallus gallus [33] = test: Toxicity in sporozoite-induced Plasmodium gallinaceum infected white leghorn chicken assessed as mortality at 480 mg/kg, sc administered 72 hrs after infection measured up to 6 days; type: organism-based; set-up: dose 480 mg/kg, route subcutaneous; conditions: in vivo

For `Nc1nc(N)c2cc(Sc3ccc(Cl)c(Cl)c3)ccc2n1`, the Activity (Plasmodium berghei [1]) was “inactive”, the Activity (Plasmodium berghei [2]) was “Active” and the MST (Plasmodium berghei [3]) was 5.9 days. The MST (Plasmodium berghei [4]) was 11.7 days, the MST (Plasmodium berghei [5]) was 15.9 days and the Activity (Plasmodium berghei [6]) was “Active”. The Activity (Plasmodium berghei [7]) was “Active”, the Activity (Plasmodium berghei [8]) was “Active” and the Activity (Plasmodium berghei [9]) was “Active”. The Activity (Plasmodium berghei [10]) was “Active”, the MST (Plasmodium gallinaceum [11]) was 20.8 days and the MST (Plasmodium berghei [12]) was 8.5 days. The Activity (Plasmodium berghei [13]) was “Active”, the Activity (Plasmodium gallinaceum [14]) was “Active” and the Activity (Plasmodium berghei [15]) was “Active”. The MST (Plasmodium berghei [16]) was 0.9 days.

For `Cc1cc(Sc2ccc3nc(N)nc(N)c3c2)ccc1Br`, the Activity (Gallus gallus [17]) was “Toxic”, the MIC (Shigella sonnei) was 20 µg/mL (≈ 55.4 µM) and the MST (Plasmodium berghei [4]) was 1.9 days. The MIC (Enterococcus faecalis) was 10 µg/mL (≈ 27.7 µM), the Activity (Plasmodium gallinaceum [18]) was “Active” and the Activity (Plasmodium gallinaceum [19]) was “Active”. The MIC (Escherichia coli) was 20 µg/mL (≈ 55.4 µM), the MST (Plasmodium berghei [5]) was 3.5 days and the MIC [20] was greater than 25 µg/mL. For the same compound, the Activity (Plasmodium gallinaceum [21]) was “Active”, the Activity (Plasmodium berghei [6]) was “Active” and the MIC (Pseudomonas aeruginosa) was greater than 25 µg/mL. For the same compound, the Activity (Plasmodium gallinaceum [22]) was “Active”, the Activity (Plasmodium gallinaceum [23]) was “Active” and the MIC (Staphylococcus aureus [24]) was 5 µg/mL (≈ 13.8 µM). The MST (Plasmodium berghei [25]) was 11.9 days, the Activity (Plasmodium berghei [7]) was “Active” and the MST (Plasmodium berghei [26]) was 7.7 days. For the same compound, the Activity (Plasmodium berghei [10]) was “Active”, the Activity (Gallus gallus [27]) was “Toxic” and the Activity (Gallus gallus [28]) was “Toxic”. For the same compound, the Activity (Gallus gallus [29]) was “Toxic”, the MIC (Staphylococcus aureus [30]) was 10 µg/mL (≈ 27.7 µM) and the Activity (Plasmodium berghei [15]) was “Active”. For the same compound, the Activity (Plasmodium gallinaceum [31]) was “Active”, the Activity (Gallus gallus [32]) was “Toxic” and the Activity (Gallus gallus [33]) was “Toxic”.
